Experimental data reported in US12077503B2, “Substituted cyclic amides and their use as herbicides” (FMC CORPORATION, priority 2015, dated 2024).

Columns and labels:
Format in all cases: in vivo
corn (Zea mays) [1] = experiment: Test G Post-Emergence Protocol; details: Zea mays, post-emergence, 312 h, read-out: Corn damage rating
How it was run: (§1)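 Post-emergence herbicidal damage, scored visually 0–100 at 13 days. Application at 15.625, 62.5 or 250 g/ha onto 8-day-old plants grown under glasshouse control.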

[2] = system: redroot pigweed (Amaranthus retroflexus); experiment: Test G Post-Emergence Protocol; details: Amaranthus retroflexus, post-emergence, 312 h, read-out: Pigweed, Redroot damage rating
How it was run: as §1

[3] = system: barnyardgrass (Echinochloa crus-galli); experiment: Test G Post-Emergence Protocol; details: Echinochloa crus-galli, post-emergence, 312 h, read-out: Barnyardgrass damage rating
How it was run: as §1

[4] = system: giant foxtail (Setaria faberi); experiment: Test G Post-Emergence Protocol; details: Setaria faberi, post-emergence, 312 h, read-out: Foxtail, Giant damage rating
How it was run: as §1

[5] = system: ivy-leaved morning glory (Ipomoea hederacea); experiment: Test G Post-Emergence Protocol; details: Ipomoea, post-emergence, 312 h, read-out: Morningglory, Ivy-leaved damage rating
How it was run: as §1

[6] = system: velvetleaf (Abutilon theophrasti); experiment: Test G Post-Emergence Protocol; details: Abutilon theophrasti, post-emergence, 312 h, read-out: Velvetleaf damage rating
How it was run: as §1

corn (Zea mays) [7] = experiment: Test G Pre-Emergence Protocol; details: Zea mays, pre-emergence, 312 h, evaluated after 13 days
How it was run: (§2)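 Herbicidal effect was rated 13 days post-application on a scale where 100 equals total damage. Spraying took place the day after sowing, using 15.625, 62.5 or 250 g/ha of compound in a 50:50 acetone/water solution with 0.5% Tween 20.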

[8] = system: redroot pigweed (Amaranthus retroflexus); experiment: Test G Pre-Emergence Protocol; details: Amaranthus retroflexus, pre-emergence, 312 h, evaluated after 13 days
How it was run: as §2

[9] = system: barnyardgrass (Echinochloa crus-galli); experiment: Test G Pre-Emergence Protocol; details: Echinochloa crus-galli, pre-emergence, 312 h, evaluated after 13 days
How it was run: as §2

[10] = system: giant foxtail (Setaria faberi); experiment: Test G Pre-Emergence Protocol; details: Setaria faberi, pre-emergence, 312 h, evaluated after 13 days
How it was run: as §2

[11] = system: ivy-leaved morning glory (Ipomoea hederacea); experiment: Test G Pre-Emergence Protocol; details: Ipomoea, pre-emergence, 312 h, evaluated after 13 days
How it was run: as §2

[12] = system: velvetleaf (Abutilon theophrasti); experiment: Test G Pre-Emergence Protocol; details: Abutilon theophrasti, pre-emergence, 312 h, evaluated after 13 days
How it was run: as §2

[13] = 15.625 g ai/ha, evaluated after 13 days (100=total damage to plant; 0=no damage to plant)
[14] = 62.5 g ai/ha, evaluated after 13 days, 100=total damage to plant, 0=no damage to plant
[15] = 250 g ai/ha, evaluated after 13 days, 100=total damage to plant, 0=no damage to plant

CN1C[C@H](c2ccc(C(F)(F)F)cc2)[C@@H](C(=O)Nc2cc(C#N)ccn2)C1=O (racemic) [Compound 1734]
plant injury at 15.625 g/ha (corn (Zea mays) [1]; [13]): 0% | plant injury at 62.5 g/ha (corn (Zea mays) [1]; [14]): 0% | plant injury at 250 g/ha (corn (Zea mays) [1]; [15]): 0% | pest or weed control at 15.625 g/ha [2, 13]: 0% | pest or weed control at 62.5 g/ha [2, 14]: 0% | pest or weed control at 250 g/ha [2, 15]: 0% | pest or weed control at 15.625 g/ha [3, 13]: 0% | pest or weed control at 62.5 g/ha [3, 14]: 0% | pest or weed control at 250 g/ha [3, 15]: 0% | pest or weed control at 15.625 g/ha [4, 13]: 0% | pest or weed control at 62.5 g/ha [4, 14]: 0% | pest or weed control at 250 g/ha [4, 15]: 0% | pest or weed control at 15.625 g/ha [5, 13]: 0% | pest or weed control at 62.5 g/ha [5, 14]: 0% | pest or weed control at 250 g/ha [5, 15]: 0% | pest or weed control at 15.625 g/ha [6, 13]: 0% | pest or weed control at 62.5 g/ha [6, 14]: 0% | pest or weed control at 250 g/ha [6, 15]: 0% | plant injury at 15.625 g/ha (corn (Zea mays) [7]; 15.625 g ai/ha, read-out: Corn damage rating (100=total damage to plant; 0=no damage to plant)): 0% | plant injury at 62.5 g/ha (corn (Zea mays) [7]; 62.5 g ai/ha, 100=total damage to plant, 0=no damage to plant, read-out: Corn damage rating): 0% | plant injury at 250 g/ha (corn (Zea mays) [7]; 250 g ai/ha, read-out: Corn damage rating (100=total damage to plant; 0=no damage to plant)): 0% | pest or weed control at 15.625 g/ha ([8]; 15.625 g ai/ha, read-out: Pigweed, Redroot damage rating (100=total damage to plant; 0=no damage to plant)): 0% | pest or weed control at 62.5 g/ha ([8]; 62.5 g ai/ha, 100=total damage to plant, 0=no damage to plant, read-out: Pigweed, Redroot damage rating): 0% | pest or weed control at 250 g/ha ([8]; 250 g ai/ha, read-out: Pigweed, Redroot damage rating (100=total damage to plant; 0=no damage to plant)): 0% | pest or weed control at 15.625 g/ha ([9]; 15.625 g ai/ha, read-out: Barnyardgrass damage rating (100=total damage to plant; 0=no damage to plant)): 0% | pest or weed control at 62.5 g/ha ([9]; 62.5 g ai/ha, 100=total damage to plant, 0=no damage to plant, read-out: Barnyardgrass damage rating): 0% | pest or weed control at 250 g/ha ([9]; 250 g ai/ha, read-out: Barnyardgrass damage rating (100=total damage to plant; 0=no damage to plant)): 0% | pest or weed control at 15.625 g/ha ([10]; 15.625 g ai/ha, read-out: Foxtail, Giant damage rating (100=total damage to plant; 0=no damage to plant)): 0% | pest or weed control at 62.5 g/ha ([10]; 62.5 g ai/ha, 100=total damage to plant, 0=no damage to plant, read-out: Foxtail, Giant damage rating): 0% | pest or weed control at 250 g/ha ([10]; 250 g ai/ha, read-out: Foxtail, Giant damage rating (100=total damage to plant; 0=no damage to plant)): 10% | pest or weed control at 15.625 g/ha ([11]; 15.625 g ai/ha, read-out: Morningglory, Ivy-leaved damage rating (100=total damage to plant; 0=no damage to plant)): 0% | pest or weed control at 62.5 g/ha ([11]; 62.5 g ai/ha, 100=total damage to plant, 0=no damage to plant, read-out: Morningglory, Ivy-leaved damage rating): 0% | pest or weed control at 250 g/ha ([11]; 250 g ai/ha, read-out: Morningglory, Ivy-leaved damage rating (100=total damage to plant; 0=no damage to plant)): 0% | pest or weed control at 15.625 g/ha ([12]; 15.625 g ai/ha, read-out: Velvetleaf damage rating (100=total damage to plant; 0=no damage to plant)): 0% | pest or weed control at 62.5 g/ha ([12]; 62.5 g ai/ha, 100=total damage to plant, 0=no damage to plant, read-out: Velvetleaf damage rating): 0% | pest or weed control at 250 g/ha ([12]; 250 g ai/ha, read-out: Velvetleaf damage rating (100=total damage to plant; 0=no damage to plant)): 0%
